Reference: PMC11274883, “Anticancer Effect of Pt^[sequence], Pt^II5MESS, Pt^II56MESS and Their Platinum(IV)-Dihydroxy Derivatives against Triple-Negative Breast Cancer and Cisplatin-Resistant Colorectal Cancer” (Cancers, 2024)

Experiments:
Format in all cases: cell-based
[1] = test system: HT29 cells; assay: DCFDA cellular ROS detection assay; conditions: complexes at IC50, TBHP 20 µM
Protocol: (§1) DCFDA/H2DCFDA-cellular ROS Assay Kit (Abcam, Cambridge, MA, USA) was used to investigate the production of ROS in treated cells, as previously described. MDA−MB−231 or HT29 cells were seeded at a total concentration of 2500 cells/well in 96-well plates and incubated overnight. DMEM was then removed, and cells washed with 1× kit buffer, and stained with 25 µM 2′,7′-dichlorofluorescein diacetate (DCFH-DA) for 45 min. […] After that, the plates were scanned using the Glo-Max®-Multimode microplate reader (Promega Corporation, Alexandra, VIC, Australia) at an excitation/emission of 485/535 nm to detect fluorescence (relative fluorescence units, or RFU) at various time points. A positive control was generated using 20 µM tert-butyl hydroperoxide (TBHP), and the same procedure was applied with DCFDA. Three independent experiments in triplicates were implemented.

[2] = test system: MDA−MB−231 cells; assay: DCFDA cellular ROS detection assay; conditions: complexes at IC50, TBHP 20 µM
Protocol: as §1

[3] = test system: HT29 cells; assay: TMRE mitochondrial membrane potential assay; conditions: complexes at IC50, FCCP 20 µM
Protocol: (§2) Cells were then treated with an IC50 drug concentration for each complex. At 24, 48 or 72 h, DMEM was removed, and cells were washed with PBS. Then, cells were incubated with 1 µM tetramethylrhodamine, ethyl ester (TMRE) stain for 30 min. TMRE was then removed, and cells were washed twice with PBS (0.2% BSA), after which phenol red-free media was added. […] The cells were then stained with TMRE, as described above, and the resulting solution was scanned for fluorescence. Three independent experiments in triplicates were implemented.

[4] = test system: MDA−MB−231 cells; assay: TMRE mitochondrial membrane potential assay; conditions: complexes at IC50, FCCP 20 µM
Protocol: as §2

[5] = test system: HT29 cells; assay: Western blot protein expression; conditions: HT29, IC50, 72 h
Protocol: (§3) Protein extraction was then performed on ice. Media were collected in Eppendorf tubes, and centrifuged at 500× g for 5 min at 4 °C. Meanwhile, 200 µL of lysis RIPA buffer, made up of 150 mM NaCl, 50 mM Tris-HCl, pH 8.0, 0.1% Triton X-100, 0.5% sodium deoxycholate, 0.1% SDS and 1 mM sodium orthovanadate, was added to each well, the cells were scrapped into the buffer, and added to the media-derived pellets. The tubes were placed on the shaker for 10 min at 4 °C. Then, cell extracts were centrifuged at 12,000× g for 15 min at 4 °C, and the supernatants (containing the proteins) were collected. The Bio-Rad-DC protein assay (Bio-Rad, Hercules, CA, USA) was used to assess protein content. Laemmli protein sample buffer (4×) with β-mercaptoethanol (9%) was used to prepare a final protein concentration of 20 µg. The samples were then heated at 100 °C for 5 min. A final volume of 30 µL of each sample was added per well and subjected to SDS-PAGE using Bolt 4–12% Bis-Tris gel (Thermo Fisher, Eugene, OR, USA) at 80 V for 30 min and then 120 V for 60 min with PageRuler™ Prestained Protein or SeeBlue Prestained Protein Ladder (Thermo Fisher, Eugene, OR, USA). Proteins were subsequently transferred to a 0.2 µm PVDF membrane (Amersham, Cytiya) using a semi-dry blot transfer. The membrane was then blocked in 5% BSA in TBST, for 1 h and probed overnight at 4 °C with primary antibodies against several cell proliferation, apoptotic, anti-apoptotic, microtubule and autophagic protein markers listed in Table S7 as per the manufacturer’s protocol. The primary antibody was then removed, washed three times for 10 min with TBST and then membranes were treated with either mouse or rabbit HRP-coupled secondary antibodies (1/3000) for 1 h and 30 min. Protein band detection was then performed using the chemiluminescence ECL kit (Thermo Fisher, Eugene, OR, USA). Blot images were obtained using the Odyssey® FC imaging system (LI-COR Biosciences, Lincoln, NE, USA) and band intensities were quantified relatively to glyceraldehyde-3-phosphate dehydrogenase (GAPDH) and then normalised each replicate gel to its corresponding no treatment control using the ImageJ v1.53t software (National Institutes of Health, Bethesda, MD, USA). Each marker results from the same experiment or parallel experiment where the gels were processed in parallel. Three independent experiments per marker were conducted.

[6] = test system: MDA−MB−231 cells; assay: Western blot protein expression; conditions: MDA−MB−231, IC50, 72 h
Protocol: as §3

[7] = representative blot Figure S30G
[8] = representative blot Figure S30H

N[C@H]1CCCC[C@@H]1N.O=[N+]([O-])[O-].O=[N+]([O-])[O-].[Pt+2].c1cnc2c(c1)ccc1cccnc12 [[Pt(1,10-phenanthroline)(1S,2S-diaminocyclohexane)](NO3)2] gave an ROS production ([1]; HT29, 24 h) of 219.00 RFU, an ROS production ([1]; HT29, 48 h) of 256.22 RFU and an ROS production ([1]; HT29, 72 h) of 273.00 RFU. The ROS production ([2]; MDA−MB−231, 24 h) was 234.82 RFU, the ROS production ([2]; MDA−MB−231, 48 h) was 285.31 RFU and the ROS production ([2]; MDA−MB−231, 72 h) was 297.81 RFU. The “MtMp (mitochondrial membrane potential)” value ([3]; HT29, 24 h) was 321.85 RFU, the “MtMp (mitochondrial membrane potential)” value ([3]; HT29, 48 h) was 256.63 RFU and the “MtMp (mitochondrial membrane potential)” value ([3]; HT29, 72 h) was 236.73 RFU. The “MtMp (mitochondrial membrane potential)” value ([4]; MDA−MB−231, 24 h) was 258.17 RFU, the “MtMp (mitochondrial membrane potential)” value ([4]; MDA−MB−231, 48 h) was 218.19 RFU and the “MtMp (mitochondrial membrane potential)” value ([4]; MDA−MB−231, 72 h) was 169.95 RFU. The “β-actin/GAPDH normalized to control (1)” value ([5]; representative blot Figure S28A) was 0.1267, the “β-tubulin/GAPDH normalized to control (1)” value ([5]; representative blot Figure S28B) was 0.232 and the “α-tubulin/GAPDH normalized to control (1)” value ([5]; representative blot Figure S28C) was 0.09086. The “p-AKT/AKT/GAPDH normalized to control (1)” value ([5]; representative blot Figure S29A) was 0.09219, the “p-ERK/ERK/GAPDH normalized to control (1)” value ([5]; representative blot Figure S29B) was 0.9509 and the “p53/GAPDH normalized to control (1)” value ([5]; representative blot Figure S29C) was 4.791. For the same compound, the “p21/GAPDH normalized to control (1)” value ([5]; representative blot Figure S29D) was 3.18, the “Bax/GAPDH normalized to control (1)” value ([5]; representative blot Figure S30A) was 3.407 and the “Bcl2/GAPDH normalized to control (1)” value ([5]; representative blot Figure S30B) was 0.2872. For the same compound, the “Cyt C/GAPDH normalized to control (1)” value ([5]; representative blot Figure S30C) was 1.692, the “Procaspase 8/GAPDH normalized to control (1)” value ([5]; representative blot Figure S30D) was 0.1633 and the “Cleaved BID/GAPDH normalized to control (1)” value ([5]; representative blot Figure S30E) was 1.611. The “Procaspase 9/GAPDH normalized to control (1)” value ([5]; representative blot Figure S30F) was 0.1981, the “Cleaved caspase 3/GAPDH normalized to control (1)” value [5, 7] was 17.46 and the “Procaspase 3/GAPDH normalized to control (1)” value [5, 7] was 0.4874. For the same compound, the “Cleaved PARP-1/GAPDH normalized to control (1)” value [5, 8] was 8.496, the “PARP-1/GAPDH normalized to control (1)” value [5, 8] was 0.2612 and the “Beclin1/GAPDH normalized to control (1)” value ([5]; representative blot Figure S31A) was 5.324. The “ATG5/GAPDH normalized to control (1)” value ([5]; representative blot Figure S31B) was 0.9428, the “ATG16L1/GAPDH normalized to control (1)” value ([5]; representative blot Figure S31C) was 3.844 and the “ATG9A/GAPDH normalized to control (1)” value ([5]; representative blot Figure S31D) was 0.465. For the same compound, the “ATG4B/GAPDH normalized to control (1)” value ([5]; representative blot Figure S31E) was 0.6844, the “LC3B/GAPDH normalized to control (1)” value ([5]; representative blot Figure S31F) was 2.121 and the “β-actin/GAPDH normalized to control (1)” value ([6]; representative blot Figure S24A) was 0.4744. The “β-tubulin/GAPDH normalized to control (1)” value ([6]; representative blot Figure S24B) was 1.15, the “α-tubulin/GAPDH normalized to control (1)” value ([6]; representative blot Figure S24C) was 0.9355 and the “p-AKT/AKT/GAPDH normalized to control (1)” value ([6]; representative blot Figure S25A) was 0.6042. The “p-ERK/ERK/GAPDH normalized to control (1)” value ([6]; representative blot Figure S25B) was 0.6771, the “p53/GAPDH normalized to control (1)” value ([6]; representative blot Figure S25C) was 1.105 and the “p21/GAPDH normalized to control (1)” value ([6]; representative blot Figure S25D) was 1.812. For the same compound, the “Bax/GAPDH normalized to control (1)” value ([6]; representative blot Figure S26A) was 1.161, the “Bcl2/GAPDH normalized to control (1)” value ([6]; representative blot Figure S26B) was 0.8361 and the “Cytochrome C/GAPDH normalized to control (1)” value ([6]; representative blot Figure S26C) was 1.827. The “Procaspase 8/GAPDH normalized to control (1)” value ([6]; representative blot Figure S26D) was 0.5195, the “Cleaved BID/GAPDH normalized to control (1)” value ([6]; representative blot Figure S26E) was 13.39 and the “Procaspase 9/GAPDH normalized to control (1)” value ([6]; representative blot Figure S26F) was 0.2042. For the same compound, the “Procaspase 3/GAPDH normalized to control (1)” value ([6]; representative blot Figure S26G) was 0.3207, the “PARP-1/GAPDH normalized to control (1)” value ([6]; representative blot Figure S26H) was 0.7775 and the “Beclin1/GAPDH normalized to control (1)” value ([6]; representative blot Figure S27A) was 1.911. For the same compound, the “ATG5/GAPDH normalized to control (1)” value ([6]; representative blot Figure S27B) was 0.7762, the “ATG16L1/GAPDH normalized to control (1)” value ([6]; representative blot Figure S27C) was 0.6758 and the “ATG9A/GAPDH normalized to control (1)” value ([6]; representative blot Figure S27D) was 0.361. The “ATG4B/GAPDH normalized to control (1)” value ([6]; representative blot Figure S27E) was 1.546 and the “LC3B/GAPDH normalized to control (1)” value ([6]; representative blot Figure S27F) was 0.9969.
